Several values for one entry are separate records, joined by “and”; a condition that tells them apart may be missing. Equal values may be shown once.
How the values were obtained:
ECLC5B cells = assay: Growth inhibition (alamarBlue, 96 h); format: cell-based, human
Ba/F3-RET^M918T = assay: Growth inhibition assay in Ba/F3 cells (CellTiter-Glo, 72 h); format: cell-based; details: Mus musculus, BaF3, 72 h, read-out: GI50 value (Mean ± SD), Ba/F3-RET^M918T, CellTiter-Glo, 72 h
LUAD-0087AS2 PDX = assay: PDX efficacy study; details: for Change in tumor volume (% from base line): Fig. 6a LUAD-0087AS2; for Change in tumor volume (% from base line) / Tumor volume: individual animals; for Area Under Curve Mean: Fig. 6a LUAD-0087AS2 tumor growth; for Tumor volume: LUAD-0087AS2
LUAD-0077AS1 PDX = assay: PDX efficacy study; format: in vivo, NSG mice; parameters: Tumor volume: unit not given here; details: for Area Under Curve Mean: Fig. 6b LUAD-0077AS1 tumor growth; for Change in tumor volume (block without heading, Fig. 6b) / Tumor volume: LUAD-0077AS1, individual animals
[1] = tested on: Ba/F3 cells expressing KIF5B–RET^V804M; assay: Growth inhibition assay in Ba/F3 cells (CellTiter-Glo, 72 h); format: cell-based; details: replicate sets
LUAD-0086AS3 cells = assay: Growth inhibition (alamarBlue, 96 h); format: cell-based, human; details: for raw viability signal (Source Data Fig. 3b-c): LUAD-0086AS3 (n=1, 3 replicates)
[2] = Homo sapiens, 96 h, read-out: IC50 for Inhibition of Growth (95% CI)

COCc1ccc(NC(=O)c2c(C#CCN3CCOCC3)n(C3(C)CC3)c3ncnc(N)c23)cc1 [Vepafestinib, 4-amino-N-[4-(methoxymethyl)phenyl]-7-(1-methylcyclopropyl)-6-[3-(morpholin-4-yl)prop-1-yn-1-yl]-7H-pyrrolo[2,3-d]pyrimidine-5-carboxamide]
raw viability signal (Source Data Fig. 3b-c) (ECLC5B cells; ECLC5B, 10000 nM, replicates): 1756.2 and 2012.52 and 6114.45
IC50 (ECLC5B cells; [2]): 7 nM
GI50 (Ba/F3-RET^M918T): 1.94 ± 0.88 nM
Change in tumor volume (% from base line) (LUAD-0087AS2 PDX; 50 mg/kg BID): 87.879% and 58.129% and 44.45% and -5.144% and -25.229%
Change in tumor volume (% from base line) (LUAD-0087AS2 PDX; 100 mg/kg QD): 17.228% and 8.714% and 8.637% and 6.644% and -4.481%
Area Under Curve Mean (LUAD-0087AS2 PDX; 50 mg/kg BID): 607.7
Area Under Curve Mean (LUAD-0087AS2 PDX; 100 mg/kg QD): -475
Tumor volume (LUAD-0087AS2 PDX; 50 mg/kg BID, treatment day 14): 176.99 and 151.71 and 143.39 and 141.55 and 122.52
Tumor volume (LUAD-0087AS2 PDX; 50 mg/kg BID, treatment day 17): 184.47 and 160.85 and 154.42 and 148.22 and 128.59
Tumor volume (LUAD-0087AS2 PDX; 50 mg/kg BID, treatment day 21): 153.78 and 172.55 and 161.49 and 152.64 and 130.54
Tumor volume (LUAD-0087AS2 PDX; 50 mg/kg BID, treatment day 24): 80.7 and 118.01 and 87.03 and 107.44 and 78.99
Tumor volume (LUAD-0087AS2 PDX; 50 mg/kg BID, treatment day 29): 140.89 (2×) and 167.28 and 145.47 and 91.61
Tumor volume (LUAD-0087AS2 PDX; 50 mg/kg BID, treatment day 32): 98.2 and 131.95 and 113.98 and 102.07 and 83.83
Tumor volume (LUAD-0087AS2 PDX; 50 mg/kg BID, treatment day 35): 98.2 and 165.14 and 137.6 and 146.01 and 86.78
Tumor volume (LUAD-0087AS2 PDX; 50 mg/kg BID, treatment day 38): 108.88 and 165.14 and 151.71 and 155.09 and 86.78
Tumor volume (LUAD-0087AS2 PDX; 50 mg/kg BID, treatment day 42): 118.01 and 213.8 and 176.98 and 176.74 and 91.61
Tumor volume (LUAD-0087AS2 PDX; 50 mg/kg BID, treatment day 45): 118.01 and 222.58 and 176.98 and 181.58 and 91.61
Tumor volume (LUAD-0087AS2 PDX; 100 mg/kg QD, treatment day 14): 102.07 and 91.61 and 107.17 and 110.58 and 103.77
Tumor volume (LUAD-0087AS2 PDX; 100 mg/kg QD, treatment day 17): 102.07 and 81.71 and 90.28 and 103.77 (2×)
Tumor volume (LUAD-0087AS2 PDX; 100 mg/kg QD, treatment day 21): 107.17 (2×) and 113.1 and 118.75 and 114.83
Tumor volume (LUAD-0087AS2 PDX; 100 mg/kg QD, treatment day 24): 93.59 and 83.07 and 77.95 and 87.03 and 98.2
Tumor volume (LUAD-0087AS2 PDX; 100 mg/kg QD, treatment day 29): 100.37 and 99.78 and 80.89 and 91.87 and 98.2
Tumor volume (LUAD-0087AS2 PDX; 100 mg/kg QD, treatment day 32): 103.92 and 108.88 and 90.28 and 95.24 and 107.17
Tumor volume (LUAD-0087AS2 PDX; 100 mg/kg QD, treatment day 35): 109.36 and 120.29 and 95.03 and 107.44 and 110.58
Tumor volume (LUAD-0087AS2 PDX; 100 mg/kg QD, treatment day 38): 109.36 and 120.29 and 114.83 and 118.75 and 122.12
Tumor volume (LUAD-0087AS2 PDX; 100 mg/kg QD, treatment day 42): 109.36 and 126.29 and 116.65 and 126.64 and 138.88
Tumor volume (LUAD-0087AS2 PDX; 100 mg/kg QD, treatment day 45): 109.36 and 126.29 and 120.64 and 126.64 and 138.88
Area Under Curve Mean (LUAD-0077AS1 PDX; 50 mg/kg BID): 728.7
Area Under Curve Mean (LUAD-0077AS1 PDX; 100 mg/kg QD): 549
Change in tumor volume (block without heading, Fig. 6b) (LUAD-0077AS1 PDX; 50 mg/kg BID): 60.867 and 57.9883 and 49.0287 and 27.5983 and 23.1229
Tumor volume (LUAD-0077AS1 PDX; 50 mg/kg BID, treatment day 0): 82.36 (2×) and 88.7 and 83.97 and 85.5
Tumor volume (LUAD-0077AS1 PDX; 50 mg/kg BID, treatment day 4): 85.5 (3×) and 82.36 and 83.97
Tumor volume (LUAD-0077AS1 PDX; 50 mg/kg BID, treatment day 7): 80.89 (2×) and 82.36 (2×) and 85.5
Tumor volume (LUAD-0077AS1 PDX; 50 mg/kg BID, treatment day 11): 80.89 (3×) and 74.9 and 77.87
Tumor volume (LUAD-0077AS1 PDX; 50 mg/kg BID, treatment day 14): 95.03 and 87.03 and 102.07 (3×)
Tumor volume (LUAD-0077AS1 PDX; 50 mg/kg BID, treatment day 19): 105.09 and 109.21 and 122.74 and 135.08 (2×)
Tumor volume (LUAD-0077AS1 PDX; 50 mg/kg BID, treatment day 22): 186.96 and 181.98 and 192.42 and 159.66 and 197.96
Tumor volume (LUAD-0077AS1 PDX; 50 mg/kg BID, treatment day 25): 232.25 (2×) and 250.35 (2×) and 247.99
Change in tumor volume (block without heading, Fig. 6b) (LUAD-0077AS1 PDX; 100 mg/kg QD): 67.7861 and 60.2113 and 54.3275 and 44.2105 and 25.5424
Tumor volume (LUAD-0077AS1 PDX; 100 mg/kg QD, treatment day 0): 82.36 and 83.97 and 87.11 and 85.5 (2×)
Tumor volume (LUAD-0077AS1 PDX; 100 mg/kg QD, treatment day 4): 85.5 (2×) and 83.97 (2×) and 88.7
Tumor volume (LUAD-0077AS1 PDX; 100 mg/kg QD, treatment day 7): 82.36 and 72.18 and 79.42 and 77.87 and 79.29
Tumor volume (LUAD-0077AS1 PDX; 100 mg/kg QD, treatment day 11): 79.29 (2×) and 65.37 and 72.18 and 77.87
Tumor volume (LUAD-0077AS1 PDX; 100 mg/kg QD, treatment day 14): 114.83 and 111.18 and 83.83 (3×)
Tumor volume (LUAD-0077AS1 PDX; 100 mg/kg QD, treatment day 19): 131.95 (2×) and 140.89 and 109.36 and 123.3
Tumor volume (LUAD-0077AS1 PDX; 100 mg/kg QD, treatment day 22): 136.38 and 156.56 and 135.08 and 138.33 and 147.55
Tumor volume (LUAD-0077AS1 PDX; 100 mg/kg QD, treatment day 25): 213.8 and 205.8 and 189.86 and 177.9 and 205.88
GI50 ([1]; Ba/3-KIF5B-RET-V804M): 38.7 nM
GI50 ([1]; Mus musculus, BaF3, Ba/3-KIF5B-RET-V804M): 44.8 nM
IC50 (LUAD-0086AS3 cells; [2]): 116 nM
raw viability signal (Source Data Fig. 3b-c) (LUAD-0086AS3 cells; 0.01 nM): 16237.2 and 19485.2 and 18210.6
raw viability signal (Source Data Fig. 3b-c) (LUAD-0086AS3 cells; 0.1 nM): 16457.6 and 20449.8 and 20222
raw viability signal (Source Data Fig. 3b-c) (LUAD-0086AS3 cells; 1 nM): 16743.2 and 19056.2 and 19367.3
raw viability signal (Source Data Fig. 3b-c) (LUAD-0086AS3 cells; 10 nM): 12680.1 and 18071 and 16933
raw viability signal (Source Data Fig. 3b-c) (LUAD-0086AS3 cells; 100 nM): 5830.14 and 9884.36 and 9286.4
raw viability signal (Source Data Fig. 3b-c) (LUAD-0086AS3 cells; 1000 nM): 6803.13 and 8603.1 and 8594.97
raw viability signal (Source Data Fig. 3b-c) (LUAD-0086AS3 cells; 10000 nM): 3602.32 and 4605.44 and 4993.57
